Values of other authors as cited in patent US20020131987A1, “METHOD FOR ENHANCING STABLE CELLULAR CREATINE CONCENTRATION” (priority 1997, published 2002).

Key:
[1] = not given; remark: listed apart in the source
[2] = not given; remark: listed apart in the source
[3] = not given; remark: listed apart in the source
[4] = not given; remark: listed apart in the source

Compound | formation of creatinine in aqueous solution (dissolved in an aqueous solution) | reaction to litmus [1] | volume of alcohol in which one gram dissolves ([2]; alcohol) | volume of water in which one gram dissolves ([2]; water) | decomposition in the alimentary tract ([3]; after oral administration, no appreciable increase in urinary urea or ammonia) | absorption from the alimentary tract ([3]; oral administration) | formation of creatinine in acid solution (acid solution) | time for conversion of creatine to creatinine (acidic aqueous solution) | creatine lost from the cell ([4]; 70 kg male) | loss of creatine from skeletal muscle ([4]; human skeletal muscle)
CN(CC(=O)O)C(=N)N.O [creatine monohydrate] | creatinine is formed | neutral | about 9 liters | 75 mL |  |  |  |  |  | 
CN(CC(=O)O)C(=N)N [creatine] |  |  |  |  | not decomposed | completely absorbed | complete | a number of hours | approximately 2 grams per day | about 3 % per day
